In paper PMC5218480 (PLoS ONE, 2017):

System: MV-4-11 cells
Assay: Gene expression microarray analysis (Affymetrix PrimeView) and GSEA
Assay type: cell-based, human
Parameters: RFU PODN (11730768_x_at) / Fold change /veh PODN (11730768_x_at) / RFU LINC00158 (11744669_a_at) / Fold change /veh LINC00158 (11744669_a_at) / RFU DUSP10 (11751237_a_at) / Fold change /veh DUSP10 (11751237_a_at) / RFU ID3 (11757404_x_at) / Fold change /veh ID3 (11757404_x_at) / RFU PLEKHG5 (11737974_s_at) / Fold change /veh PLEKHG5 (11737974_s_at) / RFU LRRC4B (11730491_at) / Fold change /veh LRRC4B (11730491_at) / RFU GIMAP4 (11747438_a_at) / Fold change /veh GIMAP4 (11747438_a_at) / RFU KRT8 (11758183_x_at) / Fold change /veh KRT8 (11758183_x_at) / RFU CNN1 (11734310_a_at) / Fold change /veh CNN1 (11734310_a_at) / RFU VPS37D (11726825_at) / Fold change /veh VPS37D (11726825_at) / RFU C10orf10 (11716522_x_at) / Fold change /veh C10orf10 (11716522_x_at) / RFU KIR2DL2 /// KIR2DL4 /// KIR2DL5A /// KIR2DL5B /// KIR2DS1 /// KIR2DS2 /// KIR2DS3 /// KIR2DS4 /// KIR3DL3 /// KIR3DL3 /// KIR3DS1 (11738374_at) / Fold change /veh KIR2DL2 /// KIR2DL4 /// KIR2DL5A /// KIR2DL5B /// KIR2DS1 /// KIR2DS2 /// KIR2DS3 /// KIR2DS4 /// KIR3DL3 /// KIR3DL3 /// KIR3DS1 (11738374_at) / RFU C1QL1 (11718748_at) / Fold change /veh C1QL1 (11718748_at) / RFU TMPRSS4 (11747572_a_at) / Fold change /veh TMPRSS4 (11747572_a_at) / RFU HAMP (11756126_x_at) / Fold change /veh HAMP (11756126_x_at) / RFU RNFT2 (11725882_a_at) / Fold change /veh RNFT2 (11725882_a_at) / RFU NR4A2 (11747474_a_at) / Fold change /veh NR4A2 (11747474_a_at) / RFU ABCC12 (11746883_a_at) / Fold change /veh ABCC12 (11746883_a_at) / RFU TMEM136 (11760407_x_at) / Fold change /veh TMEM136 (11760407_x_at) / RFU CLDN22 /// WWC2 (11732394_at) / Fold change /veh CLDN22 /// WWC2 (11732394_at) / RFU HLA-DPB1 (11760878_x_at) / Fold change /veh HLA-DPB1 (11760878_x_at) / RFU SPINT1 (11716480_a_at) / Fold change /veh SPINT1 (11716480_a_at) / RFU GAP43 (11754022_s_at) / Fold change /veh GAP43 (11754022_s_at) / RFU A4GNT (11735810_at) / Fold change /veh A4GNT (11735810_at) / RFU PRB3 (11715151_x_at) / Fold change /veh PRB3 (11715151_x_at) / RFU TUBB4B (11761932_at) / Fold change /veh TUBB4B (11761932_at) / RFU CAPN14 (11732068_a_at) / Fold change /veh CAPN14 (11732068_a_at) / RFU TMCC2 (11721928_a_at) / Fold change /veh TMCC2 (11721928_a_at) / RFU IRGQ (11745062_a_at) / Fold change /veh IRGQ (11745062_a_at) / RFU FAM174B (11720279_a_at) / Fold change /veh FAM174B (11720279_a_at) / RFU TMPRSS4 (11748680_a_at) / Fold change /veh TMPRSS4 (11748680_a_at) / RFU FAM212B (11763350_a_at) / Fold change /veh FAM212B (11763350_a_at) / RFU PLEKHG5 (11743358_a_at) / Fold change /veh PLEKHG5 (11743358_a_at) / RFU ZSCAN30 (11745921_a_at) / Fold change /veh ZSCAN30 (11745921_a_at) / RFU CMKLR1 (11741424_a_at) / Fold change /veh CMKLR1 (11741424_a_at) / RFU LOC101060620 /// MAPK8IP1 (11723275_at) / Fold change /veh LOC101060620 /// MAPK8IP1 (11723275_at) / RFU SPTSSB (11747773_x_at) / Fold change /veh SPTSSB (11747773_x_at) / RFU PRSS12 (11739890_at) / Fold change /veh PRSS12 (11739890_at) / RFU BIN1 (11741810_x_at) / Fold change /veh BIN1 (11741810_x_at) / RFU WNT11 (11732464_a_at) / Fold change /veh WNT11 (11732464_a_at) / RFU C10orf10 (11716521_a_at) / Fold change /veh C10orf10 (11716521_a_at) / RFU C5orf56 (11738089_at) / Fold change /veh C5orf56 (11738089_at) / RFU CYB561 (11721691_x_at) / Fold change /veh CYB561 (11721691_x_at) / RFU ANKRD19P (11752326_a_at) / Fold change /veh ANKRD19P (11752326_a_at) / RFU OR2T12 /// OR2T33 /// OR2T8 (11738714_s_at) / Fold change /veh OR2T12 /// OR2T33 /// OR2T8 (11738714_s_at) / RFU VCAN (11748164_a_at) / Fold change /veh VCAN (11748164_a_at) / RFU JSRP1 (11732532_at) / Fold change /veh JSRP1 (11732532_at) / RFU KRTAP10-11 (11738290_x_at) / Fold change /veh KRTAP10-11 (11738290_x_at) / RFU MYO3A (11730013_a_at) / Fold change /veh MYO3A (11730013_a_at) / RFU EBF3 (11725865_a_at) / Fold change /veh EBF3 (11725865_a_at) / RFU CAMK2N1 (11719241_x_at) / Fold change /veh CAMK2N1 (11719241_x_at) / RFU C5orf56 (11738088_a_at) / Fold change /veh C5orf56 (11738088_a_at) / RFU OLFML3 (11715873_a_at) / Fold change /veh OLFML3 (11715873_a_at) / RFU LOC100653217 /// NTM (11731650_a_at) / Fold change /veh LOC100653217 /// NTM (11731650_a_at) / RFU MAPK11 (11762145_a_at) / Fold change /veh MAPK11 (11762145_a_at) / RFU FIZ1 (11724087_x_at) / Fold change /veh FIZ1 (11724087_x_at) / RFU OASL (11726364_x_at) / Fold change /veh OASL (11726364_x_at) / RFU SOX15 (11748057_x_at) / Fold change /veh SOX15 (11748057_x_at) / RFU CD79A (11719716_a_at) / Fold change /veh CD79A (11719716_a_at) / RFU HIST1H1D (11736915_at) / Fold change /veh HIST1H1D (11736915_at) / RFU CASKIN2 (11723855_a_at) / Fold change /veh CASKIN2 (11723855_a_at) / RFU LOC730098 (11760151_x_at) / Fold change /veh LOC730098 (11760151_x_at) / RFU OR4N2 (11742367_at) / Fold change /veh OR4N2 (11742367_at) / RFU PRRT2 (11749266_a_at) / Fold change /veh PRRT2 (11749266_a_at) / RFU SNX32 (11753110_a_at) / Fold change /veh SNX32 (11753110_a_at) / RFU CDHR5 (11726645_a_at) / Fold change /veh CDHR5 (11726645_a_at) / RFU RCAN1 (11760418_a_at) / Fold change /veh RCAN1 (11760418_a_at) / RFU FAM167A (11723789_a_at) / Fold change /veh FAM167A (11723789_a_at) / RFU FAM26E (11764081_at) / Fold change /veh FAM26E (11764081_at) / RFU ISYNA1 (11749810_s_at) / Fold change /veh ISYNA1 (11749810_s_at) / RFU ACY1 (11761880_at) / Fold change /veh ACY1 (11761880_at) / RFU 11764098_at / Fold change /veh 11764098_at / RFU SAMD14 (11745864_x_at) / Fold change /veh SAMD14 (11745864_x_at) / RFU NPB (11741838_a_at) / Fold change /veh NPB (11741838_a_at) / RFU TMPRSS6 (11731388_a_at) / Fold change /veh TMPRSS6 (11731388_a_at) / RFU KRTAP10-2 (11738614_at) / Fold change /veh KRTAP10-2 (11738614_at) / RFU ARHGAP8 /// PRR5-ARHGAP8 (11727945_x_at) / Fold change /veh ARHGAP8 /// PRR5-ARHGAP8 (11727945_x_at) / RFU KRTAP5-7 /// NADSYN1 (11734609_at) / Fold change /veh KRTAP5-7 /// NADSYN1 (11734609_at) / RFU RASL12 (11751679_a_at) / Fold change /veh RASL12 (11751679_a_at) / RFU CDKN2B (11736163_a_at) / Fold change /veh CDKN2B (11736163_a_at) / RFU PRF1 (11729649_at) / Fold change /veh PRF1 (11729649_at) / RFU, ZNF638 /// ZNF638-IT1 / Fold change vs veh, ZNF638 /// ZNF638-IT1 / RFU, PANK3 / Fold change vs veh, PANK3 / RFU, SH3YL1 / Fold change vs veh, SH3YL1 / RFU, ZEB2 / Fold change vs veh, ZEB2 / RFU, NRIP1 / Fold change vs veh, NRIP1 / RFU, PTTG1IP / Fold change vs veh, PTTG1IP / RFU, CAPN2 / Fold change vs veh, CAPN2 / RFU, MED14 / Fold change vs veh, MED14 / RFU, SNORA58 / Fold change vs veh, SNORA58 / RFU, C1orf63 / Fold change vs veh, C1orf63 / RFU, LRRFIP1 / Fold change vs veh, LRRFIP1 / RFU, NDUFAF7 / Fold change vs veh, NDUFAF7 / RFU, SLC12A2 / Fold change vs veh, SLC12A2 / RFU, IBTK / Fold change vs veh, IBTK / RFU, ESF1 / Fold change vs veh, ESF1 / Fold change vs veh, TMEM50B / RFU, TAOK1 / Fold change vs veh, TAOK1 / RFU, ACBD3 / Fold change vs veh, ACBD3 / RFU, TMA16 / Fold change vs veh, TMA16 / RFU, RWDD3 / Fold change vs veh, RWDD3 / RFU, BCAT1 / Fold change vs veh, BCAT1 / RFU, EDEM3 / Fold change vs veh, EDEM3 / RFU, TMEM33 / Fold change vs veh, TMEM33 / RFU, WDR75 / Fold change vs veh, WDR75 / RFU, AHCTF1 / Fold change vs veh, AHCTF1 / RFU, TFRC / Fold change vs veh, TFRC / RFU, ZDHHC17 / Fold change vs veh, ZDHHC17 / RFU, NOM1 / Fold change vs veh, NOM1 / RFU, ARL8B / Fold change vs veh, ARL8B / RFU, ZBTB11 / Fold change vs veh, ZBTB11 / RFU, TAMM41 / Fold change vs veh, TAMM41 / RFU, KIAA1704 /// LOC100996395 / Fold change vs veh, KIAA1704 /// LOC100996395 / RFU, ING1 / Fold change vs veh, ING1 / RFU, TRMT61B / Fold change vs veh, TRMT61B / RFU, FUBP3 / Fold change vs veh, FUBP3 / RFU, TP53 / Fold change vs veh, TP53 / RFU, TNKS2 / Fold change vs veh, TNKS2 / RFU, ZFP14 / Fold change vs veh, ZFP14 / RFU, ACTR2 / Fold change vs veh, ACTR2 / RFU, PPP3R1 / Fold change vs veh, PPP3R1 / RFU, PIK3R1 / Fold change vs veh, PIK3R1 / RFU, HNRNPA1 / Fold change vs veh, HNRNPA1 / RFU, RNF170 / Fold change vs veh, RNF170 / RFU, ZNF28 / Fold change vs veh, ZNF28 / RFU, RNGTT / Fold change vs veh, RNGTT / RFU, OGT / Fold change vs veh, OGT / RFU, BRD1 / Fold change vs veh, BRD1 / RFU, MARS / Fold change vs veh, MARS / RFU, ZNF655 / Fold change vs veh, ZNF655 / RFU, FAHD1 / Fold change vs veh, FAHD1 / RFU, BDP1 / Fold change vs veh, BDP1 / RFU, LRRCC1 / Fold change vs veh, LRRCC1 / RFU, ARID1A / Fold change vs veh, ARID1A / RFU, ZNF146 / Fold change vs veh, ZNF146 / RFU, ZNF330 / Fold change vs veh, ZNF330 / RFU, GPN3 / Fold change vs veh, GPN3 / RFU, C9orf123 / Fold change vs veh, C9orf123 / RFU, N4BP2L2 / Fold change vs veh, N4BP2L2 / RFU, ARFIP1 / Fold change vs veh, ARFIP1 / RFU, FAM179B / Fold change vs veh, FAM179B / RFU, BCL10 / Fold change vs veh, BCL10 / RFU, UHRF1BP1L / Fold change vs veh, UHRF1BP1L / RFU, BET1 / Fold change vs veh, BET1 / RFU, CNOT2 / Fold change vs veh, CNOT2 / RFU, ZNF268 / Fold change vs veh, ZNF268 / Fold change vs veh, ZNF507 / RFU, DGCR2 / Fold change vs veh, DGCR2 / RFU, WDSUB1 / Fold change vs veh, WDSUB1 / Fold change vs veh, HSP90B1 /// MIR3652 / RFU, ADSS / Fold change vs veh, ADSS / RFU, GK / Fold change vs veh, GK / RFU, ZNF148 / Fold change vs veh, ZNF148 / RFU, TAF9 / Fold change vs veh, TAF9 / RFU, SLC1A5 / Fold change vs veh, SLC1A5 / RFU, SLMO2 / Fold change vs veh, SLMO2 / RFU, ABCC4 / Fold change vs veh, ABCC4 / RFU, LOC101060439 /// RAP1B / Fold change vs veh, LOC101060439 /// RAP1B / RFU, RFX7 / Fold change vs veh, RFX7 / RFU, GTPBP10 / Fold change vs veh, GTPBP10 / RFU, CNEP1R1 / Fold change vs veh, CNEP1R1 / RFU, BIVM-ERCC5 /// ERCC5 / Fold change vs veh, BIVM-ERCC5 /// ERCC5 / RFU, ILF3 / Fold change vs veh, ILF3 / RFU 11762660_at / Fold change /veh 11762660_at / RFU VCAN (11757783_s_at) / Fold change /veh VCAN (11757783_s_at) / RFU DDX43 (11728927_at) / Fold change /veh DDX43 (11728927_at) / RFU KRT8 (11758188_x_at) / Fold change /veh KRT8 (11758188_x_at) / RFU NKD1 (11759106_at) / Fold change /veh NKD1 (11759106_at) / RFU SRD5A1 (11742802_a_at) / Fold change /veh SRD5A1 (11742802_a_at) / RFU TPSAB1 /// TPSB2 (11721975_s_at) / Fold change /veh TPSAB1 /// TPSB2 (11721975_s_at) / RFU GSTM3 (11746129_a_at) / Fold change /veh GSTM3 (11746129_a_at) / RFU IL23R (11737362_x_at) / Fold change /veh IL23R (11737362_x_at) / RFU TMEM51 (11727254_a_at) / Fold change /veh TMEM51 (11727254_a_at) / RFU PIWIL2 (11732686_x_at) / Fold change /veh PIWIL2 (11732686_x_at) / RFU ORM1 (11744905_x_at) / Fold change /veh ORM1 (11744905_x_at) / RFU CCDC152 (11743942_at) / Fold change /veh CCDC152 (11743942_at) / RFU ECM1 (11717891_a_at) / Fold change /veh ECM1 (11717891_a_at) / RFU IL23R (11748794_a_at) / Fold change /veh IL23R (11748794_a_at) / RFU TNFAIP8L3 (11732012_x_at) / Fold change /veh TNFAIP8L3 (11732012_x_at) / RFU MBOAT4 (11741988_at) / Fold change /veh MBOAT4 (11741988_at) / RFU 11764193_at / Fold change /veh 11764193_at / RFU TMEM53 (11763286_at) / Fold change /veh TMEM53 (11763286_at) / RFU MAGEB2 (11727129_at) / Fold change /veh MAGEB2 (11727129_at) / RFU TMEM200A (11744735_a_at) / Fold change /veh TMEM200A (11744735_a_at) / RFU CCDC152 (11751479_a_at) / Fold change /veh CCDC152 (11751479_a_at) / RFU FAM211A (11726209_a_at) / Fold change /veh FAM211A (11726209_a_at) / RFU RGS16 (11746705_a_at) / Fold change /veh RGS16 (11746705_a_at) / RFU VCAN (11755009_s_at) / Fold change /veh VCAN (11755009_s_at) / RFU RHOB (11743442_s_at) / Fold change /veh RHOB (11743442_s_at) / RFU RGS16 (11720943_a_at) / Fold change /veh RGS16 (11720943_a_at) / RFU RGS16 (11720944_at) / Fold change /veh RGS16 (11720944_at) / RFU, VPS4B / Fold change vs veh, VPS4B / RFU, CREB1 / Fold change vs veh, CREB1 / RFU, DNAJC13 / Fold change vs veh, DNAJC13 / RFU, GNAQ / Fold change vs veh, GNAQ / RFU, CDK5R1 / Fold change vs veh, CDK5R1 / RFU, ZRANB3 / Fold change vs veh, ZRANB3 / RFU, CUL4A / Fold change vs veh, CUL4A / RFU, CCNY / Fold change vs veh, CCNY / RFU, UFL1 / Fold change vs veh, UFL1 / RFU, COG3 / Fold change vs veh, COG3 / RFU, DIAPH2 / Fold change vs veh, DIAPH2 / RFU, SKA2 / Fold change vs veh, SKA2 / RFU, AFF3 / Fold change vs veh, AFF3 / RFU, LMF1 / Fold change vs veh, LMF1 / RFU, IPO11 / Fold change vs veh, IPO11 / RFU, DFFB / Fold change vs veh, DFFB / RFU, FOXP1 / Fold change vs veh, FOXP1 / RFU, CARD8 / Fold change vs veh, CARD8 / RFU, STRN3 / Fold change vs veh, STRN3 / RFU, ADK / Fold change vs veh, ADK / RFU, RASSF2 / Fold change vs veh, RASSF2 / RFU, WIPF1 / Fold change vs veh, WIPF1 / RFU, LARP1B / Fold change vs veh, LARP1B / RFU, RASA1 / Fold change vs veh, RASA1 / RFU, RB1 / Fold change vs veh, RB1 / RFU, PPFIA1 / Fold change vs veh, PPFIA1 / RFU, MAT2A / Fold change vs veh, MAT2A / RFU, CCT5 / Fold change vs veh, CCT5 / RFU, WDR92 / Fold change vs veh, WDR92 / RFU, CUX1 / Fold change vs veh, CUX1 / RFU, TTC7A / Fold change vs veh, TTC7A / RFU, TMEM135 / Fold change vs veh, TMEM135 / RFU, DEPTOR / Fold change vs veh, DEPTOR / RFU, CPM / Fold change vs veh, CPM / RFU, DNAJB6 / Fold change vs veh, DNAJB6 / RFU, CACNA2D3 / Fold change vs veh, CACNA2D3 / RFU, DTX4 / Fold change vs veh, DTX4 / RFU, TFCP2 / Fold change vs veh, TFCP2 / RFU, GMCL1 /// GMCL1P1 / Fold change vs veh, GMCL1 /// GMCL1P1 / RFU, AEBP2 / Fold change vs veh, AEBP2 / RFU, SNHG1 /// SNORD22 /// SNORD25 /// SNORD26 /// SNORD27 /// SNORD28 /// SNORD29 /// SNORD31 / Fold change vs veh, SNHG1 /// SNORD22 /// SNORD25 /// SNORD26 /// SNORD27 /// SNORD28 /// SNORD29 /// SNORD31 / Fold change (Aza/veh), C12orf56 (ProbeSet 11735607_a_at) / Fold change (ACY-1035/veh), C12orf56 (ProbeSet 11735607_a_at) / Fold change (Aza/veh), FGFR1OP (ProbeSet 11751329_s_at) / Fold change (ACY-1035/veh), FGFR1OP (ProbeSet 11751329_s_at) / Fold change (Aza/veh), VPS36 (ProbeSet 11739960_a_at) / Fold change (ACY-1035/veh), VPS36 (ProbeSet 11739960_a_at) / RFU SYPL1 (11715823_x_at) / Fold change /veh SYPL1 (11715823_x_at) / RFU IGFBP7 (11715501_s_at) / Fold change /veh IGFBP7 (11715501_s_at) / RFU REEP3 (11722064_at) / Fold change /veh REEP3 (11722064_at) / RFU IGLL1 (11728026_x_at) / Fold change /veh IGLL1 (11728026_x_at): dose or concentration left out as unconfirmed
Details: ProbeSet 11749781_s_at; LIST B

In the case of `Nc1ccc(-c2cccs2)cc1NC(=O)c1ccc2c(c1)cc(C1CC1)n2CCN1CCOCC1` [ACY-1035], the “Fold change vs veh, BCAT1” value is reported as 0.87.
